Measured values taken from ChEMBL document CHEMBL1141016, “Orally bioavailable prodrugs of a BCS class 2 molecule, an inhibitor of HIV-1 reverse transcriptase” (Bioorg Med Chem Lett, 2008).
Converted amounts (≈) assume the structure as drawn.

What was measured:
[1] = Aqueous stability assessed as half life at pH 2; type: physicochemical
[2] = Aqueous stability assessed as half life at pH 6.5; type: physicochemical
[3] = system: Rattus norvegicus; experiment: Tmax in Hanover Wistar rat assessed as 5-(6-chloro-2-fluoro-3-((5-methyl-6-oxo-1,6-dihydropyridazin-3-yl)methyl)phenoxy)isophthalonitrile level at 50 mg/kg, po; type: ADME, organism-based; parameters: dose 50 mg/kg, route oral; details: in vivo
[4] = system: Rattus norvegicus; experiment: Cmax in Hanover Wistar rat assessed as 5-(6-chloro-2-fluoro-3-((5-methyl-6-oxo-1,6-dihydropyridazin-3-yl)methyl)phenoxy)isophthalonitrile level at 50 mg/kg, po; type: ADME, organism-based; parameters: dose 50 mg/kg, route oral; details: in vivo
[5] = system: Rattus norvegicus; experiment: AUC (0 to 24 hrs) in Hanover Wistar rat assessed as 5-(6-chloro-2-fluoro-3-((5-methyl-6-oxo-1,6-dihydropyridazin-3-yl)methyl)phenoxy)isophthalonitrile level at 50 mg/kg, po; parameters: unit not given here; details: in vivo
[6] = Permeability across human Caco-2 cells; type: ADME, cell-based; details: read-out: permeability
[7] = Aqueous solubility at pH 6.5; type: physicochemical
[8] = Dissociation constant, pKa of the compound; type: physicochemical
[9] = Tmax in Hanover Wistar rat at 5 mg/kg, po; type: ADME, organism-based; parameters: dose 5 mg/kg, route oral; details: in vivo
[10] = Cmax in Hanover Wistar rat at 5 mg/kg, po; type: ADME, organism-based; parameters: dose 5 mg/kg, route oral; details: in vivo
[11] = Tmax in Hanover Wistar rat at 50 mg/kg, po; type: ADME, organism-based; parameters: dose 50 mg/kg, route oral; details: in vivo
[12] = Cmax in Hanover Wistar rat at 50 mg/kg, po; type: ADME, organism-based; parameters: dose 50 mg/kg, route oral; details: in vivo
[13] = system: Rattus norvegicus; experiment: AUC (0 to 24 hrs) in Hanover Wistar rat at 5 mg/kg, po; details: in vivo
[14] = system: Rattus norvegicus; experiment: AUC (0 to 24 hrs) in Hanover Wistar rat at 50 mg/kg, po; details: in vivo

Row | Compound | half-life [1] | half-life [2] | Tmax [3] | Cmax [4] | AUC [5] | Papp [6] | solubility [7] | pKa [8] | Tmax [9] | Cmax [10] | Tmax [11] | Cmax [12] | AUC [13] | AUC [14]
1 | Cc1cc(Cc2ccc(Cl)c(Oc3cc(C#N)cc(C#N)c3)c2F)nn(COC(=O)OCCN(C)C)c1=O.Cl | 289 h | 0.9 h | 2 h | 7.3 µM | 108 |  |  |  |  |  |  |  |  | 
2 | Cc1cc(Cc2ccc(Cl)c(Oc3cc(C#N)cc(C#N)c3)c2F)nn(COC(=O)CN)c1=O.Cl | 38 h | 1 h | 4 h | 6.3 µM | 93 |  |  |  |  |  |  |  |  | 
3 | Cc1cc(Cc2ccc(Cl)c(Oc3cc(C#N)cc(C#N)c3)c2F)nn(COC(=O)[C@@H](N)C(C)C)c1=O.Cl | 1420 h | 3.2 h | 4 h | 9.1 µM | 134 |  |  |  |  |  |  |  |  | 
4 | Cc1cc(Cc2ccc(Cl)c(Oc3cc(C#N)cc(C#N)c3)c2F)n[nH]c1=O |  |  |  |  |  | 19 ×10⁻⁶ cm/s | 0.3 µg/mL (≈ 0.76 µM) | 10.5 | 3.7 h | 0.96 µM | 3.3 h | 1.5 µM | 6.8 uM.hr/ml | 20.3 uM.hr/ml
5 | Cc1cc(Cc2ccc(Cl)c(Oc3cc(C#N)cc(C#N)c3)c2F)nn(COC(=O)OCCN2CCOCC2)c1=O.Cl | 301 h | 3.5 h | 3.3 h | 5.6 µM | 89 |  |  |  |  |  |  |  |  | 

Further lines, results first:

Row | half-life [1] | half-life [2] | Tmax [3] | Cmax [4] | AUC [5] | Papp [6] | solubility [7] | pKa [8] | Tmax [9] | Cmax [10] | Tmax [11] | Cmax [12] | AUC [13] | AUC [14] | Compound
6 | 17 h | < 0.3 h | 4.7 h | 7.3 µM | 108 |  |  |  |  |  |  |  |  |  | Cc1cc(Cc2ccc(Cl)c(Oc3cc(C#N)cc(C#N)c3)c2F)nn(COC(=O)[C@@H]2CCCN2)c1=O.Cl
7 | > 24 h | > 24 h | 8 h | 12.7 µM | 178 |  |  |  |  |  |  |  |  |  | Cc1cc(Cc2ccc(Cl)c(Oc3cc(C#N)cc(C#N)c3)c2F)nn(COP(=O)([O-])[O-])c1=O.[Na+].[Na+]
8 | 10 h | 4.7 h | 4.7 h | 8.8 µM | 101 |  |  |  |  |  |  |  |  |  | Cc1cc(Cc2ccc(Cl)c(Oc3cc(C#N)cc(C#N)c3)c2F)nn(COC(=O)c2cccnc2)c1=O.Cl
9 | 462 h | 40 h | 2.7 h | 13.2 µM | 142 |  |  |  |  |  |  |  |  |  | Cc1cc(Cc2ccc(Cl)c(Oc3cc(C#N)cc(C#N)c3)c2F)nn(COC(=O)CCC(=O)O)c1=O
